≈ marks a conversion by molar mass, not a printed value. Read-outs that look alike come from different tables or passages of the source.
How the values were obtained:
C. xerosis DSM 20170 [1] = test: Bactericidal activity (MBC), 60 min contact; format: cell-based; conditions: Corynebacterium xerosis, DSM20170, 1 h, inoculum completely killed after 60 min incubation, read-out: MBC (minimal bactericidal concentration)
Source text: (§1) The different axilla bacteria are isolated from the human axilla according to techniques known in the art, in particular according to standard microbiological practice. They are taxonomically identified by cell morphology, gram-reaction and biochemical tests included in the Api coryne test kit (BioMerieux, France). Strain Staphylococcus epidermidis Ax25 is identified by fatty acid methyl ester analysis (FAME; German type strain collection DSMZ, Germany) . Escherichia coli DSM 682, Staphylococcus aureus DSM 799, and Corynebacterium xerosis DSM 20170 are obtained from the German-type strain collection. The strains are maintained on Tryptic soy broth plates, this standard medium being supplemented with 5 g per Litre of Polyoxyethylene Sorbitan Monooleate (TweenTM 80). Plates are incubated at 36° C. for a period of 48 hours. The bacteria are then swabbed from the plates and suspended in 4 ml of Muller-Hinton broth supplemented with 100 mg of TweenTM 80 per Litre (MH-Tween) and incubated again at 36° C. for 16 hours. Following incubation the bacterial suspensions are diluted in MH-Tween to obtain a final cell density of 10^7 colony forming units per ml. These diluted suspensions of the different test organisms are distributed to different columns of a microtiter plate, 100 μl per well. The test compounds are dissolved in dimethylsulfoxide (DMSO) at various test concentrations and 2.5 μl of these different DMSO solutions are added to the different wells of the test plates. The plates are covered with plastic films and incubated for 24 h at 36° C. with shaking at 250 rpm. The turbidity developing in the microtiter […] examined after 24 h to determine microbial growth. […] The bacteria are grown, harvested and diluted under the same conditions as described in the example above and added to microtiter plates (100 μl per well), each well containing 2.5 μl of the different DMSO solutions as described above. After 60 min incubation, 0.5 μl of the bacterial culture from each well (corresponding to 5×10^3 cfu in the control treatment) is transferred to a fresh microtiter plate which contained 100 μl per well of fresh medium. The plates are covered with plastic films and incubated for 24 h at 36° C. with shaking at 250 rpm. The turbidity developing in the microtiter plates is then examined after 24 h to determine microbial growth. The minimal concentration of test compounds which completely killed the bacterial inoculum is determined as the minimal bactericidal concentration (MBC).

S. epidermidis Ax 25 [2] = test: Bactericidal activity (MBC), 60 min contact; format: cell-based; conditions: Staphylococcus epidermidis, AX25, 1 h, inoculum completely killed after 60 min incubation, read-out: MBC (minimal bactericidal concentration)
Source text: as §1

Corynebacterium Ax 7 [3] = test: Bacteriostatic activity (MIC), microtiter broth turbidity; format: cell-based, Corynebacterium group G; conditions: read-out: MIC (minimal inhibitory concentration)
Source text: (§2) The bacteriostatic effects of the compounds of the present invention are compared with those of known anti-bacterial agents against human skin bacteria. Typical bacteria (Corynebacterium and Staphylococcus strains) isolated from the human axilla and commercially available strains are used.
(§3) The different axilla bacteria are isolated from the human axilla according to techniques known in the art, in particular according to standard microbiological practice. They are taxonomically identified by cell morphology, gram-reaction and biochemical tests included in the Api coryne test kit (BioMerieux, France). Strain Staphylococcus epidermidis Ax25 is identified by fatty acid methyl ester analysis (FAME; German type strain collection DSMZ, Germany) . […] The strains are maintained on Tryptic soy broth plates, this standard medium being supplemented with 5 g per Litre of Polyoxyethylene Sorbitan Monooleate (Tween™ 80). Plates are incubated at 36° C. for a period of 48 hours. The bacteria are then swabbed from the plates and suspended in 4 ml of Muller-Hinton broth supplemented with 100 mg of Tween™ 80 per Litre (MH-Tween) and incubated again at 36° C. for 16 hours. Following incubation the bacterial suspensions are diluted in MH-Tween to obtain a final cell density of 10^7 colony forming units per ml. These diluted suspensions of the different test organisms are distributed to different columns of a microtiter plate, 100 μl per well. The test compounds are dissolved in dimethylsulfoxide (DMSO) at various test concentrations and 2.5 μl of these different DMSO solutions are added to the different wells of the test plates. The plates are covered with plastic films and incubated for 24 h at 36° C. with shaking at 250 rpm. The turbidity developing in the microtiter platesi then examined after 24 h to determine microbial growth.

Escherichia coli DSM 682 = test: as above; format: cell-based; conditions: read-out: MIC (minimal inhibitory concentration)
Source text: as §2, §3

C. xerosis DSM 20170 [4] = test: as above; format: cell-based; conditions: Corynebacterium xerosis, read-out: MIC (minimal inhibitory concentration)
Source text: as §2, §3

S. epidermidis Ax 25 [5] = test: as above; format: cell-based; conditions: Staphylococcus epidermidis, read-out: MIC (minimal inhibitory concentration)
Source text: as §2, §3

[6] = tested on: Staphylococcus aureus DSM 799; test: as above; format: cell-based; conditions: read-out: MIC (minimal inhibitory concentration)
Source text: as §2, §3

Corynebacterium Ax 7 [7] = test: Bactericidal activity (MBC), 60 min contact; format: cell-based, Corynebacterium group G; conditions: AX7, 1 h, inoculum completely killed after 60 min incubation, read-out: MBC (minimal bactericidal concentration)
Source text: as §1

Corynebacterium Ax 15 [8] = test: Bacteriostatic activity (MIC), microtiter broth turbidity; format: cell-based, Corynebacterium jeikeium; conditions: read-out: MIC (minimal inhibitory concentration)
Source text: as §2, §3

Corynebacterium Ax 15 [9] = test: Bactericidal activity (MBC), 60 min contact; format: cell-based, Corynebacterium jeikeium; conditions: AX15, 1 h, inoculum completely killed after 60 min incubation, read-out: MBC (minimal bactericidal concentration)
Source text: as §1

[10] = AX7, Corynebacterium Ax 7, growth inhibited by at least 80%, 24 h at 36° C.
[11] = DSM682, Escherichia coli DSM 682, growth inhibited by at least 80%, 24 h at 36° C.
[12] = DSM20170, C. xerosis DSM 20170, growth inhibited by at least 80%, 24 h at 36° C.
[13] = AX25, S. epidermidis Ax 25, growth inhibited by at least 80%, 24 h at 36° C.
[14] = DSM799, Staphylococcus aureus DSM 799, growth inhibited by at least 80%, 24 h at 36° C.
[15] = AX15, Corynebacterium Ax 15, growth inhibited by at least 80%, 24 h at 36° C.
[16] = Staphylococcus aureus, DSM799, 24 h

MIC (Corynebacterium Ax 7 [3]; [10]) [µg/mL]	MIC (Escherichia coli DSM 682; [11]) [µg/mL]	MIC (C. xerosis DSM 20170 [4]; [12]) [µg/mL]	MIC (S. epidermidis Ax 25 [5]; [13]) [µg/mL]	MIC [6, 14] [µg/mL]	MIC (Corynebacterium Ax 15 [8]; [15]) [µg/mL]	Compound	MBC (C. xerosis DSM 20170 [1]) [µg/mL]	MBC (S. epidermidis Ax 25 [2]) [µg/mL]	MBC (Corynebacterium Ax 7 [7]) [µg/mL]	MBC (Corynebacterium Ax 15 [9]) [µg/mL]	MIC (Corynebacterium Ax 7 [3]; Corynebacterium, AX7, 24 h) [µg/mL]	MIC (Escherichia coli DSM 682; Escherichia coli, DSM682, 24 h) [µg/mL]	MIC (C. xerosis DSM 20170 [4]; DSM20170, 24 h) [µg/mL]	MIC (S. epidermidis Ax 25 [5]; AX25, 24 h) [µg/mL]	MIC [6, 16] [µg/mL]	MIC (Corynebacterium Ax 15 [8]; Corynebacterium, AX15, 24 h) [µg/mL]
≤ 19	≥ 5000	≤ 19	39 (≈ 124 µM)	55 (≈ 175 µM)	78 (≈ 249 µM)	CCCCCCCCC(CCCCCC)C(=O)NCC(=O)O (stereo not drawn) [compound 11, (2-Hexyl-decanoylamino)-acetic acid]	313 (≈ 998 µM)	≥ 5000	156 (≈ 498 µM)	313 (≈ 998 µM)						
1250 (≈ 6640 µM)	2500 (≈ 13300 µM)	884 (≈ 4700 µM)	625 (≈ 3320 µM)	625 (≈ 3320 µM)	1250 (≈ 6640 µM)	CCCCC(CC)COCC(=O)O (stereo not drawn) [compound 4, (2-Ethyl-hexyloxy)-acetic acid]	≥ 5000	≥ 5000	2500 (≈ 13300 µM)	≥ 5000						
5 (≈ 15.9 µM)	> 2500	7 (≈ 22.3 µM)	10 (≈ 31.8 µM)	5 (≈ 15.9 µM)	5 (≈ 15.9 µM)	CCCCCCCCC(CCCCCC)C(=O)OCC(=O)O (stereo not drawn) [compound 9, 2-Hexyl-decanoic acid carboxymethyl ester]	80 (≈ 254 µM)	40 (≈ 127 µM)	40 (≈ 127 µM)	80 (≈ 254 µM)						
625 (≈ 2360 µM)	2500 (≈ 9460 µM)	313 (≈ 1180 µM)	625 (≈ 2360 µM)	625 (≈ 2360 µM)	1250 (≈ 4730 µM)	CC(COCC(=O)O)Cc1ccc(C(C)(C)C)cc1 (stereo not drawn) [compound 1, [3-(4-tert.-Butyl-phenyl)-2-methyl-propoxy]-acetic acid]	2500 (≈ 9460 µM)	≥ 5000	2500 (≈ 9460 µM)	≥ 5000						
						CCCCCCCCCCCC(=O)OCC(O)CO (stereo not drawn) [C1, Dodecanoic acid 2,3-dihydroxy-propyl ester, reference compound]					160 (≈ 583 µM)	> 5000	320 (≈ 1170 µM)	< 80	80 (≈ 292 µM)	1250 (≈ 4560 µM)
						Oc1cc(Cl)ccc1Oc1ccc(Cl)cc1Cl [C4, Triclosan, reference compound]					30 (≈ 104 µM)	5 (≈ 17.3 µM)	15 (≈ 51.8 µM)	0.15 (≈ 0.518 µM)	5 (≈ 17.3 µM)	30 (≈ 104 µM)
						CCCCC(CC)COCC(O)CO (stereo not drawn) [C2, 3-(2-Ethyl-hexyloxy)-propane-1,2-diol, reference compound]					1250 (≈ 6120 µM)	630 (≈ 3080 µM)	630 (≈ 3080 µM)	1250 (≈ 6120 µM)	630 (≈ 3080 µM)	1250 (≈ 6120 µM)
1250 (≈ 4860 µM)	1250 (≈ 4860 µM)	630 (≈ 2450 µM)	1250 (≈ 4860 µM)	1250 (≈ 4860 µM)	1250 (≈ 4860 µM)	CCCCCCC(CCCC)C(=O)NCC(=O)O (stereo not drawn) [compound 10, (2-Butyl-octanoylamino)-acetic acid]	2500 (≈ 9710 µM)	2500 (≈ 9710 µM)	1250 (≈ 4860 µM)	> 2500						
160 (≈ 655 µM)	> 2500	80 (≈ 327 µM)	160 (≈ 655 µM)	160 (≈ 655 µM)	310 (≈ 1270 µM)	CCCCCCC(CCCC)COCC(=O)O (stereo not drawn) [compound 5, (2-Butyl-octyloxy)-acetic acid]	> 2500	> 2000	1250 (≈ 5120 µM)	> 2500						
5 (≈ 16.6 µM)	> 2500	4 (≈ 13.3 µM)	5 (≈ 16.6 µM)	5 (≈ 16.6 µM)	5 (≈ 16.6 µM)	CCCCCCCCC(CCCCCC)COCC(=O)O (stereo not drawn) [compound 6, (2-Hexyl-decyloxy)-acetic acid]	40 (≈ 133 µM)	20 (≈ 66.6 µM)	20 (≈ 66.6 µM)	40 (≈ 133 µM)						
140 (≈ 630 µM)	> 10000	80 (≈ 360 µM)	160 (≈ 720 µM)	160 (≈ 720 µM)	160 (≈ 720 µM)	CC(C)=CCCC(C)=CCCC(C)=CCO [C3, Farnesol, reference compound]										
160 (≈ 619 µM)	2500 (≈ 9680 µM)	80 (≈ 310 µM)	1250 (≈ 4840 µM)	80 (≈ 310 µM)	80 (≈ 310 µM)	CCCCCCC(CCCC)C(=O)OCC(=O)O (stereo not drawn) [compound 8, 2-Butyl-octanoic acid carboxymethyl ester]	2500 (≈ 9680 µM)	1250 (≈ 4840 µM)	1250 (≈ 4840 µM)	2500 (≈ 9680 µM)						
1250 (≈ 6180 µM)	2500 (≈ 12400 µM)	1250 (≈ 6180 µM)	1250 (≈ 6180 µM)	1250 (≈ 6180 µM)	1250 (≈ 6180 µM)	CCCCC(CC)C(=O)OCC(=O)O (stereo not drawn) [compound 7, 2-Ethyl-hexanoic acid carboxymethyl ester]	> 2500	> 2500	> 2500	> 2500						

— US20070276045A1, “Anti-Bacterial Compounds” (priority 2004, published 2007)
